According to publication PMC8949075, “Evaluation of Two Novel Hydantoin Derivatives Using Reconstructed Human Skin Model Episkin^TM: Perspectives for Application as Potential Sunscreen Agents” (Molecules, 2022):

Assays:
[1] = Episkin skin permeation test (finite dose, OECD 428); assay type: in vitro ADME, human; conditions: human; 24 h exposure, 10 mg/cm^2 finite dose, 2% formulation; read-out: recovery in the epidermis (of the applied dose)
Experimental: (§1) The MM was provided by the manufacturer.
(§2) The receptor fluid composition was based on the pilot experiments.
(§3) The formulations of the test compounds (JH3 and JH10) and commercial UV filters were applied onto the skin surface in the donor compartment in a net dose of 10 mg/cm^2 (finite dose application) using disposable flexible loops. To quantify the dose of the formulation applied on the top of the Episkin^TM model, the loops were weighed, filled with approximately 11 mg of formulation, and then reweighed. The difference in weight was used as the amount of formulation applied. Commercial UV filters such as BP3, 4MBC, and AVO were used as reference standards. The filters were obtained from Sigma-Aldrich, Darmstadt, Germany.
(§4) The plate with tissues was embedded with parafilm and incubated at specific time points at 32 °C. As the passive diffusion of chemicals (and therefore their skin absorption) is affected by temperature, the diffusion chamber and skin were maintained at a constant temperature close to normal skin temperature of 32 ± 1 °C [19, 23, 30, 32]. At fixed time points (0, 1, 2, 3, 4, 5, 6, and 24 h), aliquots of the receptor fluid (0.5 mL) were collected from the receptor compartment and immediately replaced with fresh fluid. After 24 h the entire receptor fluid was collected, and the skin surface was washed thoroughly with cotton buds impregnated in methanol (5 times). The tissues were removed from the inserts and both the donor and receptor compartments were washed separately with methanol. The samples were stored at −20 °C until chemical analysis.
(§5) All samples were spiked with 25 µL of pentoxifylline (PTX, Sigma-Aldrich, Darmstadt, Germany) (final concentration of 20 µM) used as an internal standard prior to extraction. The samples were analyzed using ultra high-pressure liquid chromatography coupled with mass spectrometry (UHPLC/MS; Waters Corporation, Milford, MA, USA). Quantification was based on peak area and calculated from standard calibration curves of the compound adjusted by the internal standard area. The assay was in agreement with the Organization for Economic Co-operation and Development (OECD) guideline 428 [19].

[2] = test system: Episkin^TM reconstructed human epidermis; assay: as above; assay type: in vitro ADME; conditions: 2% formulation; for absorbed amount detected in the RF (of the applied dose): 24 h exposure, 10 mg/cm^2 finite dose; for detection in the receptor fluid over time: sampling 0-6 and 24 h; for detection in the receptor fluid over time / absorption rate (amount in receptor fluid): 10 mg/cm^2; for absorption rate (amount in receptor fluid): after 24 h
Experimental: as §1, §2, §3, §4, §5

[3] = CHO-K1 cytotoxicity assay (MTT); assay type: cell-based; conditions: Chinese hamster, CHO-K1 cells, concentrations ranging from 1 to 10 µM
Experimental: The Chinese hamster ovary CHO-K1 cell line was obtained from the American Type Culture Collection (ATCC CCL-61). The CHO-K1 cell line was cultured in a humidified incubator at 37 °C with 5% CO2, in F-12K Medium (Kaighn’s Modification of Ham’s F-12 Medium) (ATCC) supplemented with 10% fetal bovine serum (FBS; Gibco, Waltham, MA, USA) and antibiotics (1% streptomycin/penicillin salts mixture, Sigma–Aldrich, Darmstadt, Germany).
The cells were seeded at a density of 6 × 10^3 on 96-well plates. […] Test compounds and 4MBC were dissolved in DMSO (solvent, final concentration 0.1%) and ethanol (co-solvent, final concentration 1%). At the end of the incubation period, 10 µL of MTT reagent was added to each well. After 4 h incubation (37 °C, 5% CO2), the medium was discarded, and the formazan produced in the cells appeared as dark crystals in the bottom of the wells. Next, pure DMSO was added to each well. The optical density data of converted dye was measured at 570 nm (A570) on microplate reader. […] The experiment was conducted two times with three repetitions for each condition.

CHO-K1 cells = assay: In vitro micronucleus assay; assay type: cell-based, Chinese hamster
Experimental: The CHO-K1 cells were seeded in 6-well plates at a density of 1 × 10^6 cells/well and incubated overnight at 37 °C, 5% CO2 atmosphere. […] The test compounds and 4MBC were dissolved in DMSO (solvent, final concentration 0.1%) and ethanol (co-solvent, final concentration 1%). After 24 h of treatment, the medium was removed, and the cells were rinsed with PBS. Then, fresh medium containing cytochalasin B (CytB; Sigma Aldrich, Darmstadt, Germany) (4.5 µg/mL) was added and incubation was continued for the next 24 h.
After the incubation period, the cells were washed with fresh medium, detached by trypsinization, and centrifuged. The supernatant was discarded and 5 mL of 1% ice-cold sodium citrate (Chempur, Piekary Śląskie, Poland) was added to the cell pellet, which was then gently resuspended. After 15 s, 5 mL of freshly prepared fixative solution (methanol/acetic acid, 3:1) and 4 drops of formaldehyde were added. The cell suspension was centrifuged (5 min, 1000 rpm), the supernatant was discarded again, and the pellet was fixed in fixative mixture two more times, without formaldehyde. After the third fixation, part of the supernatant was removed, and around 1 mL of the supernatant was retained to resuspend the cells. The suspension was then dripped onto clean, previously frozen, glass slides to dry. After air-drying, the slides were stained with Giemsa dye (1:20 in phosphate buffer) for 5 min [56, 78, 79].
One thousand binucleated cells per slide with intact nuclei of equal size, similar pattern of cytoplasm staining, intact membrane, and distinguishable from adjacent cells, without apoptotic and necrotic cells were analyzed. Only the micronuclei with the same morphology and color of the main nuclei, with 1/16 to 1/3 of the major nucleus diameter, unrefringent and not overlapping or connected to the main nuclei were counted. Moreover, the presence of dicentric bridges (DB) and nuclear buds (NB) in the binucleated cells was analyzed. The nuclear division index (NDI) was calculated using the following formula: [(1 × MOC) + (2 × BC) + (3 × MUC)]/N, where MOC is the number of mononuclear cells, BC is the number of binuclear cells, MUC represents the number of multinuclear cells, and N is the total number of scored cells. The micronucleus incidence was presented as a number of micronuclei per 1000 examined binuclear cells. The experiment was conducted two times with three repetitions for each condition.

[4] = parameters: method as in PMID 26674115; conditions: cited from earlier work
[5] = parameters: method as in earlier work; conditions: cited from earlier work
[6] = cited from earlier work
[7] = Episkin phototoxicity test (UVA 50 J/cm^2; MTT viability, Il-1α release); assay type: cell-based, human; conditions: human; 0.5 mM, UVA 50 J/cm^2; read-out: tissue viability after UVA exposure compared to non-irradiated epidermis
Experimental: as §1
Compounds JH3 and JH10 (final concentrations of 0.5 and 1 mM) solubilized in ethanol (final concentration of 1% in water) were applied topically on the tissue surface. Chlorpromazine (CPZ, chlorpromazine hydrochloride, C17H19ClN2S·HCl, CAS number: 69-09-0, molecular weight: […], purity: meets USP testing specifications, Sigma-Aldrich, Darmstadt, Germany) (final concentration of 0.5 mM, based on literature data) was used as a positive control, whereas solvent alone served as a negative control.
Duplicate plates were prepared for UVA and dark (controls) exposure purposes. After the treatment period of 2 h, the excess test compound was removed from each well, and the tissues were exposed to UVA at a non-cytotoxic dose of 50 J/cm^2 ([…] at 250 W/m^2) with a solar light simulator equipped with a window glass filter and ID65 filter (Suntest CPS+, Atlas, Linsengericht, Germany). The emitted spectrum contained both UV and visible outputs with a UV cut-on of approx. 320 nm and corresponded to ID65 per ISO 10,977 [74]. The irradiance level between 320 and 400 nm was approximated by the following equation: W/m^2 (320–400 nm) = W/m^2 (300–800 nm) ÷ 11.5. In parallel, the non-irradiated treated tissues were placed in the dark under the same conditions. […] Next, cell viability was assessed using an MTT conversion test and the culture media aliquots were kept frozen (−20 °C) for Il-1α measurement (see 2.3.2. The Episkin^TM skin irritation test method section).

[8] = test system: Episkin^TM reconstructed human epidermis; assay: Episkin skin irritation test (MTT viability, Il-1α release; OECD 439); conditions: 26 mg/cm^2 topical, 15 min exposure, 42 h post-incubation
Description: The Episkin^TM model (aged 13 days, large/1.07 cm^2 surface area) was provided by Episkin (Lyon, France). The Episkin^TM kit consists of 12 reconstructed epidermis units made of type I collagen matrix, representing the dermis, surfaced with a film of type IV collagen, upon which is laid a stratified and differentiated epidermis derived from human keratinocytes [17]. Upon receipt of the tissues, the culture inserts were removed from the agarose-nutrient solution and transferred into 12-well plates containing 2 mL of the maintenance medium (MM) per well. The MM was provided by the manufacturer. Tissues were then incubated for 24 h at 37 °C in a humidified atmosphere of 5% CO2 before use in the permeation, irritation, or phototoxicity experiments.
Prior to the irritation experiments, the Episkin^TM inserts were washed with sterile PBS to remove traces of the MM and transferred into new 12-well plates containing 2 mL of fresh MM. […] Sodium dodecyl sulphate (SDS; Sigma-Aldrich, Darmstadt, Germany) (5% in water) and PBS were used as positive and negative controls, respectively. Both controls were applied topically (26 mg/cm^2). Samples were tested in two independent experiments using three tissues for each chemical, positive, or negative control.
Then, the tissues were placed in new 12-well plates containing 2 mL of the MM per well and incubated for an additional 42 h at 37 °C in a humidified atmosphere of 5% CO2 as post-treatment incubation time. At the end of this period, the culture media of each tissue were collected and stored at −20 °C for Il-1α measurement.
The cell viability was assessed by a subsequent incubation of the tissues for 3 h with freshly prepared 3-(4,5-dimethylthiazol-2-yl)-2,5-diphenyltetrazolium bromide (MTT; Sigma-Aldrich, Darmstadt, Germany) solution (0.3 mg/mL in assay medium (AM)) in a 12-well plate. Then, a biopsy of the epidermis was done using a puncher (Episkin, Lyon, France), and the precipitated formazan was extracted using 500 µL of acidified isopropanol (Chempur, Piekary Śląskie, Poland) (0.04 N HCl in isopropanol) for 48 h (4 °C). At the end of the extraction period, 200 µL of each sample were transferred to 96-well plates for absorbance measurements at 570 nm (A570) [70, 71, 72, 73]. […] Viability (percent of control) was determined by dividing A570 of experimental wells by A570 of control wells × 100%. The test substance was considered as an irritant when mean tissue viability was equal or less than 50% [16, 17].
Il-1α measurement was conducted by a classic enzyme-linked immunosorbent assay (ELISA) technique (Cayman Chemical, Ann Arbor, MI, USA). Firstly, 100 µL of the samples were added into a 96-well ready to use microtiter plate (precoated with a monoclonal antibody specific for Il-1α (Il-1α capture antibody). Secondly, 100 µL of an acetylcholinesterase:Fab’ Conjugate (AChE:Fab’) was added to each well. The plate was covered with plastic film and incubated overnight at 4 °C. At the end of the incubation period the contents of each well were removed and rinsed five times with wash buffer. Next, 200 µL of Ellman’s reagent (containing the substrate for AChE) was added to each well, the plate was covered with plastic film and developed in the dark using an orbital shaker. The absorbance of the wells was measured at 410 nm. Il-1α concentrations were then calculated using the standard curve.

Question: For `Cc1ccc(C=C2C(=O)C3(C)CCC2C3(C)C)cc1` (stereo not drawn) [4MBC, 3-(4-methylbenzylidene) camphor, reference compound], which recovery at 24 h, 2 % in formulation [1] is on record?
Answer: The recovery at 24 h, 2 % in formulation was 28%.

Question: And the “absorbed amount detected in the RF (of the applied dose)” value [2]?
Answer: Its value is 3%.

Question: And the “detection in the receptor fluid over time” value [2]?
Answer: Its value is “detected only after 24 h exposure”.

Question: What about the viability at 24 h [3] of the same compound?
Answer: Its viability at 24 h is greater than 75%.

Question: And the “DB (dicentric bridges)” value (CHO-K1 cells; Chinese hamster, 24 h, 1 µM)?
Answer: Its value is 4.6.

Question: And the “MN (micronuclei)” value (CHO-K1 cells; Chinese hamster, 24 h, 1 µM)?
Answer: Its value is 8.3 ± 2.9.

Question: And the “NB (nuclear buds)” value (CHO-K1 cells; Chinese hamster, 24 h, 1 µM)?
Answer: The value was 3.7.

Question: What about the “NDI (nuclear division index)” value (CHO-K1 cells; Chinese hamster, 24 h, 1 µM) of the same compound?
Answer: The value was 1.35.

Question: What about the “DB (dicentric bridges)” value (CHO-K1 cells; Chinese hamster, 24 h, 5 µM) of the same compound?
Answer: Its value is 4.5.

Question: What about the “MN (micronuclei)” value (CHO-K1 cells; Chinese hamster, 24 h, 5 µM) of the same compound?
Answer: The value was 9.0 ± 3.4.

Question: And the “NB (nuclear buds)” value (CHO-K1 cells; Chinese hamster, 24 h, 5 µM)?
Answer: Its value is 3.5.

Question: What about the “NDI (nuclear division index)” value (CHO-K1 cells; Chinese hamster, 24 h, 5 µM) of the same compound?
Answer: The value was 1.30.

Question: What about the “DB (dicentric bridges)” value (CHO-K1 cells; Chinese hamster, 24 h, 10 µM) of the same compound?
Answer: The value was 3.4.

Question: What about the “MN (micronuclei)” value (CHO-K1 cells; Chinese hamster, 24 h, 10 µM) of the same compound?
Answer: Its value is 7.3 ± 4.4.

Question: What about the “NB (nuclear buds)” value (CHO-K1 cells; Chinese hamster, 24 h, 10 µM) of the same compound?
Answer: Its value is 4.9.

Question: And the “NDI (nuclear division index)” value (CHO-K1 cells; Chinese hamster, 24 h, 10 µM)?
Answer: Its value is 1.39.

Question: And the “log P” value [4]?
Answer: The value was 4.95.

Question: And the “in vitro chromosomal aberration test result” value [5]?
Answer: Its value is “negative”.

Question: And the “bacterial mutation (Ames) assay result” value [6]?
Answer: The value was “negative”.

Question: Which results are given for `COc1ccc(C(=O)CC(=O)c2ccc(C(C)(C)C)cc2)cc1` [AVO, avobenzone]?
Answer: recovery at 24 h, 2 % in formulation [1]: 16%; absorbed amount detected in the RF (of the applied dose) [2]: about 1%; absorption rate (amount in receptor fluid) [2]: 3 µg/cm^2; log P [4]: 4.51

Question: Which results are given for `COc1ccc(C(=O)c2ccccc2)c(O)c1` [BP3, benzophenone-3]?
Answer: recovery at 24 h, 2 % in formulation [1]: 18%; absorbed amount detected in the RF (of the applied dose) [2]: 12%; absorption rate (amount in receptor fluid) [2]: 20 µg/cm^2; detection in the receptor fluid over time [2]: clearly detectable after the third hour

Question: With `CO[C@@]12[C@H](COC(N)=O)C3=C(C(=O)C(C)=C(N)C3=O)N1C[C@@H]1N[C@@H]12` [MMC, Mitomycin C, reference compound] as the compound, how does the “increase in the number of MNs vs normal and vehicle control” value (CHO-K1 cells; 0.5 µg/mL) read?
Answer: The value was “approximately 10 fold”.

Question: And the “increase in the number of NBs vs normal and vehicle control” value (CHO-K1 cells; 0.5 µg/mL)?
Answer: The value was 7 fold.

Question: What about the “MN (micronuclei)” value (CHO-K1 cells; 0.5 µg/mL (positive control), count in 1000 binucleated cells per slide) of the same compound?
Answer: The value was 88.5 ± 6.5.

Question: Which viability at 2 h, 0.5 mM [7] does the source give for `CN(C)CCCN1c2ccccc2Sc2ccc(Cl)cc21` [CPZ, Chlorpromazine, reference compound] here?
Answer: Its viability at 2 h, 0.5 mM is roughly 40%.

Question: What does the source list for `CCCCCCCCCCCCOS(=O)(=O)[O-].[Na+]` [SDS, Sodium dodecyl sulphate, reference compound]?
Answer: Il-1α release [8]: 96 pg/mL; mean tissue viability ([8]; vs negative control): approximately 10%
